{"source": "paper PMC4979471", "about": "(Cell Death Discovery, 2015)", "key": {"recombinant human IDO": {"target": "T1, recombinant human IDO (Homo sapiens, UniProt P14902)", "T1 construct": "purchased R&D Systems (Minneapolis, MN, USA)", "T1 sequence (P14902 whole entry)": "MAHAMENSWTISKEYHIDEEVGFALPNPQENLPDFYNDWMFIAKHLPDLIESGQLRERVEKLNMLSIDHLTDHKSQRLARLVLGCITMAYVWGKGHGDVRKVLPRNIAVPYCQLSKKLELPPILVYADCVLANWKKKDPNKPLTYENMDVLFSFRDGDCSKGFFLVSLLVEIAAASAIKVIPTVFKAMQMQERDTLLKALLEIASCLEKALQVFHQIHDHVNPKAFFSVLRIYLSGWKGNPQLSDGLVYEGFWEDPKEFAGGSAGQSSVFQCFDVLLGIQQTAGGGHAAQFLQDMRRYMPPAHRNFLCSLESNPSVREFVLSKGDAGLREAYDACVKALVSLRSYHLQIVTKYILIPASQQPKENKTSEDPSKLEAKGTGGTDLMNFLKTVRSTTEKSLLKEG", "experiment": "IDO enzymatic assay", "assay_type": "biochemical", "conditions": "in vitro enzymatic assay", "experimental": "IDO activity was determined as described by Takahashi et al.[25] using recombinant human IDO purchased from R&D Systems (Minneapolis, MN, USA). The yellow pigment derived from kynurenine was measured at 490 nm using the Spectramax microplate reader (Molecular Devices)."}, "BMDM": {"tested_on": "BMDM", "experiment": "TNF-induced NFκB activation (IκB phosphorylation and degradation, Western blot)", "assay_type": "cell-based, mouse", "conditions": "100 nM", "text": "Lysates prepared in 1× Cell Lysis Buffer (Cell Signaling, Danvers, MA, USA) containing protease and phosphatase inhibitors were separated on 4–12% SDS-PAGE and blotted onto nitrocellulose membrane (Invitrogen, Waltham, MA, USA). Blots were probed for IκB (9242, Cell Signaling), phospho-IκB (2859, Cell Signaling), and tubulin as a loading control."}, "[1]": {"experiment": "Pharmacokinetic profile after i.p. administration", "assay_type": "in vivo, C57BL/6 mice", "conditions": "i.p., mice", "description": "Briefly, pharmacokinetic studies were conducted using n=3 animals per group for each compound. […] Blood samples were obtained at various time points following intraperitoneal injection and diluted 1 : 1 with water prior to storage at −80 °C.\nPrior to bioanalysis, samples were thawed and each analyte was isolated using a method based on protein precipitation. The resulting supernatant was injected into an LC/MS/MS system optimized for detection of the compound of interest. Data were reported as quantitative drug concentrations as determined by standard calibration curve analysis. Using these optimized conditions, the typical lower limit of quantitation achieved was 1.00 ng/ml for both compounds."}}, "note": "Entries after “also recorded” stand apart in the source; their conditions may differ.", "data": [{"smiles": "CC(C)(C)C(=O)N1N=CC[C@H]1c1ccccc1", "note": "[GSK′963]", "values": [{"measurement": "effect on IDO activity", "setting": "recombinant human IDO", "result": "lacks measurable activity; also recorded: no effect; also recorded: inactive"}, {"measurement": "effect on TNF-induced NFκB activation", "setting": "BMDM", "result": "no measurable effects; also recorded: no effect"}, {"measurement": "apparent half-life", "setting": "[1]", "result": "greater than that for Nec-1"}]}]}
